From PubChem BioAssay AID1259407 (Chemical Carcinogenesis Research Information System (CCRIS), 2018) come the findings set out here.

The source made the active and inactive calls. How the calls were made is not given here.

For the data set, the system named is CCRIS mutagenicity, Ames/micronucleus/aberration tests. As to the kind of experiment: CCRIS mutagenicity studies.

`O[C@H]1C=Cc2c(cc3ccc4cccc5ccc2c3c45)[C@@H]1O`: the mutagenic call by setting is: (Test System: AMES SALMONELLA TYPHIMURIUM, Strain/Indicator: TA97, Metabolic Activation: RAT, LIVER, S-9, AROCLOR 1254, Method: STANDARD PLATE) “active; positive”; (Test System: AMES SALMONELLA TYPHIMURIUM, Strain/Indicator: TA98, Metabolic Activation: NONE, Method: HOST-MEDIATED) “active; positive”; (Test System: AMES SALMONELLA TYPHIMURIUM, Strain/Indicator: TA98, Metabolic Activation: RAT, LIVER, 3-METHYLCHOLANTHRENE, Method: LIQUID SUSPENSION) “active; positive”; (Test System: AMES SALMONELLA TYPHIMURIUM, Strain/Indicator: TA98, Metabolic Activation: RAT, LIVER, S-9, AROCLOR 1254, Method: STANDARD PLATE) “active; positive”; (Test System: AMES SALMONELLA TYPHIMURIUM, Strain/Indicator: TA98, Metabolic Activation: RAT, LIVER, S-9, Method: STANDARD PLATE) “active; positive”; (Test System: AMES SALMONELLA TYPHIMURIUM, Strain/Indicator: TA100, Metabolic Activation: EPITHELIAL CELL-MEDIATED, AROCLOR 1254, Method: PREINCUBATION) “active; positive”. For the same molecule, the mutagenic call by setting is: (Test System: AMES SALMONELLA TYPHIMURIUM, Strain/Indicator: TA100, Metabolic Activation: EPITHELIAL CELL-MEDIATED, NADPH, Method: PREINCUBATION) “active; positive”; (Test System: AMES SALMONELLA TYPHIMURIUM, Strain/Indicator: TA100, Metabolic Activation: EPITHELIAL CELL-MEDIATED, Method: PREINCUBATION) “active; positive”; (Test System: AMES SALMONELLA TYPHIMURIUM, Strain/Indicator: TA100, Metabolic Activation: KUPFFER CELL-MEDIATED, AROCLOR 1254, Method: PREINCUBATION) “active; positive”; (Test System: AMES SALMONELLA TYPHIMURIUM, Strain/Indicator: TA100, Metabolic Activation: KUPFFER CELL-MEDIATED, NADPH, Method: PREINCUBATION) “active; positive”; (Test System: AMES SALMONELLA TYPHIMURIUM, Strain/Indicator: TA100, Metabolic Activation: KUPFFER CELL-MEDIATED, Method: PREINCUBATION) “active; positive”; (Test System: AMES SALMONELLA TYPHIMURIUM, Strain/Indicator: TA100, Metabolic Activation: NONE, Method: HOST-MEDIATED) “active; positive”. The mutagenic call was “active; positive” (Test System: AMES SALMONELLA TYPHIMURIUM, Strain/Indicator: TA100, Metabolic Activation: PARENCHYMAL CELL-MEDIATED, AROCLOR 1254, Method: PREINCUBATION); “active; positive” (Test System: AMES SALMONELLA TYPHIMURIUM, Strain/Indicator: TA100, Metabolic Activation: PARENCHYMAL CELL-MEDIATED, NADPH, Method: PREINCUBATION); “active; positive” (Test System: AMES SALMONELLA TYPHIMURIUM, Strain/Indicator: TA100, Metabolic Activation: PARENCHYMAL CELL-MEDIATED, Method: PREINCUBATION); “active; positive” (Test System: AMES SALMONELLA TYPHIMURIUM, Strain/Indicator: TA100, Metabolic Activation: RAT, LIVER, S-9, AROCLOR 1254, Method: STANDARD PLATE); “active; positive” (Test System: AMES SALMONELLA TYPHIMURIUM, Strain/Indicator: TA100, Metabolic Activation: RAT, LIVER, S-9, Method: STANDARD PLATE); “inactive; negative” (Test System: AMES SALMONELLA TYPHIMURIUM, Strain/Indicator: TA1537, Metabolic Activation: RAT, LIVER, S-9 AROCLOR 1254, Method: STANDARD PLATE). For the same molecule, the mutagenic call runs as follows: (Test System: AMES SALMONELLA TYPHIMURIUM, Strain/Indicator: TA1538, Metabolic Activation: NONE, Method: HOST-MEDIATED) “inactive; negative”; (Test System: AMES SALMONELLA TYPHIMURIUM, Strain/Indicator: TA1538, Metabolic Activation: RAT, LIVER, S-9, Method: STANDARD PLATE) “active; positive”; (Test System: CHINESE HAMSTER V-79, Strain/Indicator: V-79/6-THIOGUANINE, Metabolic Activation: RAT, LIVER, S-9, AROCLOR 1254) “active; positive”; (Test System: CHINESE HAMSTER V-79, Strain/Indicator: V-79/8-AZAGUANINE, Metabolic Activation: CELL-MEDIATED, Method: STANDARD PLATE) “active; positive”; (Test System: CHINESE HAMSTER V-79, Strain/Indicator: V-79/8-AZAGUANINE, Metabolic Activation: NONE, Method: STANDARD PLATE) “active; positive”; (Test System: CHINESE HAMSTER V-79, Strain/Indicator: V-79/OUABAIN, Metabolic Activation: CELL-MEDIATED, Method: STANDARD PLATE) “active; positive”. Besides, where the note is “Test System: CHINESE HAMSTER V-79, Strain/Indicator: V-79/OUABAIN, Metabolic Activation: HAMSTER, EMBRYO, CELL-MEDIATED, Method: STANDARD PLATE”, the mutagenic call was “active; positive”.

Consider `CC(C)COC(=O)CCCCC(=O)OCC(C)C`, for which the mutagenic call reads like this: (Test System: AMES SALMONELLA TYPHIMURIUM, Strain/Indicator: TA97, Metabolic Activation: NONE, Method: STANDARD PLATE) “inactive; negative”; (Test System: AMES SALMONELLA TYPHIMURIUM, Strain/Indicator: TA97, Metabolic Activation: S-9, Method: STANDARD PLATE) “inactive; negative”; (Test System: AMES SALMONELLA TYPHIMURIUM, Strain/Indicator: TA98, Metabolic Activation: NONE, Method: STANDARD PLATE) “inactive; negative”; (Test System: AMES SALMONELLA TYPHIMURIUM, Strain/Indicator: TA98, Metabolic Activation: S-9, Method: STANDARD PLATE) “inactive; negative”; (Test System: AMES SALMONELLA TYPHIMURIUM, Strain/Indicator: TA100, Metabolic Activation: NONE, Method: STANDARD PLATE) “inactive; negative”; (Test System: AMES SALMONELLA TYPHIMURIUM, Strain/Indicator: TA100, Metabolic Activation: S-9, Method: STANDARD PLATE) “inactive; negative”. Further, the mutagenic call was “inactive; negative” (Test System: AMES SALMONELLA TYPHIMURIUM, Strain/Indicator: TA102, Metabolic Activation: NONE, Method: STANDARD PLATE); “inactive; negative” (Test System: AMES SALMONELLA TYPHIMURIUM, Strain/Indicator: TA102, Metabolic Activation: S-9, Method: STANDARD PLATE); “inactive; negative” (Test System: E.COLI, Strain/Indicator: WP2 (PKM101), Metabolic Activation: NONE, Method: STANDARD PLATE); “inactive; negative” (Test System: E.COLI, Strain/Indicator: WP2 (PKM101), Metabolic Activation: S-9, Method: STANDARD PLATE).

In the case of `O=[N+]([O-])c1cccc(-c2ccc(O)c([N+](=O)[O-])c2)c1`, for the setting “Test System: AMES SALMONELLA TYPHIMURIUM, Strain/Indicator: TA98, Metabolic Activation: NONE, Method: PREINCUBATION”, the mutagenic call was “active; positive”.

Turning to `c1ccc2c(c1)cnc1ccccc12`, the mutagenic call by setting is: (Test System: AMES SALMONELLA TYPHIMURIUM, Strain/Indicator: TA98, Metabolic Activation: RAT, LIVER, S-9, PCB, Method: STANDARD PLATE) “active; positive”; (Test System: AMES SALMONELLA TYPHIMURIUM, Strain/Indicator: TA100, Metabolic Activation: RAT, LIVER, S-9, PCB, Method: STANDARD PLATE) “active; positive”.
